Molecules are shown by their SMILES.

This assay deals with human M4 receptor (Homo sapiens (Human), UniProt P08173). Description: Radioligand (tritiated N-methylscopolamine) binding assay, M4. As to conditions: Ki against the M4 receptor; membranes from CHO cells expressing human M4; tritiated N-methylscopolamine 1.5 nM; read-out: Ki. The essentials: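 Inhibition of radioligand binding gave Ki. The assay used recombinant CHO membranes, 1.5 nM tracer, a 90 min/37 °C incubation and pH 7.4 buffer.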
Chain of human M4 receptor (P08173 whole entry): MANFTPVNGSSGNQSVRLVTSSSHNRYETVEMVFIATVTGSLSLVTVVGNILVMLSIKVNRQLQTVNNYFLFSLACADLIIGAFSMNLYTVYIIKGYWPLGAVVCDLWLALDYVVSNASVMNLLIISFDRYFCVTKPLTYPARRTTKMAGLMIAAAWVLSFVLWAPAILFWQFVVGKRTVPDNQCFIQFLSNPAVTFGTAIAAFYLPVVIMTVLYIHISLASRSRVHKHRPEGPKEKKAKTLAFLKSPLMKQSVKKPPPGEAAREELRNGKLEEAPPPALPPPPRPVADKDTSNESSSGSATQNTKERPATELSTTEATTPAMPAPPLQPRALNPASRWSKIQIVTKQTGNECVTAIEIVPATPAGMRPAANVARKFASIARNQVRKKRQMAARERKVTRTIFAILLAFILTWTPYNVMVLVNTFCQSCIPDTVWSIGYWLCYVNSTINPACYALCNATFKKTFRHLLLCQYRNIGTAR

One may read the Ki as a measure of affinity in units of concentration, obtained from inhibition or displacement. Take `C[C@@H]1CN(c2ncc(C(F)(F)F)cn2)CCN1C(=O)NCCC1CCN(Cc2ccccn2)CC1` [6-33, (2R)-2-methyl-N-{2-[1-(pyridin-2-ylmethyl)piperidin-4-yl]ethyl}-4-[5-(trifluoromethyl)pyrimidin-2-yl]piperazine-1-carboxamide]: the Ki was in the range of 100 to 1000 nM.

With `C[C@@H]1CN(c2ncc(C(F)(F)F)cn2)CCN1C(=O)NCCC1CCN(Cc2ccccc2C#N)CC1` [6-34, (2R)-N-(2-{1-[(2-cyanophenyl)methyl]piperidin-4-yl}ethyl)-2-methyl-4-[5-(trifluoromethyl)pyrimidin-2-yl]piperazine-1-carboxamide], the Ki fell in the range of 100 to 1000 nM.

On to `C[C@@H]1CN(c2ncc(C(F)(F)F)cn2)CCN1C(=O)NCCC1CCN(Cc2ccccc2F)CC1` [6-38, (2R)-N-(2-{1-[(2-fluorophenyl)methyl]piperidin-4-yl}ethyl)-2-methyl-4-[5-(trifluoromethyl)pyrimidin-2-yl]piperazine-1-carboxamide], for which the Ki is 10 to 100 nM.

`C[C@@H]1CN(c2ncc(C(F)(F)F)cn2)CCN1C(=O)NCCC1CCN(Cc2cncnc2)CC1` [6-39, (2R)-2-methyl-N-{2-[1-(pyrimidin-5-ylmethyl)piperidin-4-yl]ethyl}-4-[5-(trifluoromethyl)pyrimidin-2-yl]piperazine-1-carboxamide]: the Ki was in the range of 100 to 1000 nM.

Turning to `C[C@@H]1CN(c2ncc(C(F)(F)F)cn2)CCN1C(=O)NCCC1CCN(Cc2ccc(C#N)cc2)CC1` [6-41, (2R)-N-(2-{1-[(4-cyanophenyl)methyl]piperidin-4-yl}ethyl)-2-methyl-4-[5-(trifluoromethyl)pyrimidin-2-yl]piperazine-1-carboxamide], the Ki fell in the range of 10 to 100 nM.

For the compound `C[C@@H]1CN(c2ncc(C#N)cn2)C[C@H](C)N1C(=O)NCCC1CCN(Cc2ccc(N(C)C)cc2)CC1` [6-43, (2R,6S)-4-(5-cyanopyrimidin-2-yl)-N-[2-(1-{[4-(dimethylamino)-phenyl]methyl}piperidin-4-yl)ethyl]-2,6-dimethylpiperazine-1-carboxamide], the Ki lay in the range of 10 to 100 nM.

With `C[C@@H]1CN(c2ncc(C#N)cn2)C[C@H](C)N1C(=O)NCCC1CCN(CCc2ccccc2)CC1` [6-44, (2R,6S)-4-(5-cyanopyrimidin-2-yl)-2,6-dimethyl-N-{2-[1-(2-phenylethyl)piperidin-4-yl]ethyl}piperazine-1-carboxamide], the Ki fell in the range of 100 to 1000 nM.

With `C[C@@H]1CN(c2ncc(C#N)cn2)C[C@H](C)N1C(=O)NCCC1CCN(Cc2ccc(C#N)cc2)CC1` [6-45, (2R,6S)-N-(2-{1-[(4-cyanophenyl)methyl]piperidin-4-yl}ethyl)-4-(5-cyanopyrimidin-2-yl)-2,6-dimethylpiperazine-1-carboxamide], the Ki was in the range of 100 to 1000 nM.

Regarding `Cc1cc(CN2CCC(CCNC(=O)N3[C@H](C)CN(c4cnc(C(F)(F)F)nc4)C[C@@H]3C)CC2)ccc1O` [6-49, (2R,6S)-N-(2-{1-[(4-hydroxy-3-methylphenyl)methyl]piperidin-4-yl}ethyl)-2,6-dimethyl-4-[2-(trifluoromethyl)pyrimidin-5-yl]piperazine-1-carboxamide], the Ki was 100 to 1000 nM.

Turning to `C[C@@H]1CN(c2cnc(C(F)(F)F)nc2)C[C@H](C)N1C(=O)NCCC1CCN(Cc2cccc(F)c2)CC1` [6-51, (2R,6S)-N-(2-{1-[(3-fluorophenyl)methyl]piperidin-4-yl}ethyl)-2,6-dimethyl-4-[2-(trifluoromethyl)pyrimidin-5-yl]piperazine-1-carboxamide], the Ki lay within 10 to 100 nM.

For `C[C@@H]1CN(c2cnc(C(F)(F)F)nc2)C[C@H](C)N1C(=O)NCCC1CCN(Cc2ccccc2F)CC1` [6-52, (2R,6S)-N-(2-{1-[(2-fluorophenyl)methyl]piperidin-4-yl}ethyl)-2,6-dimethyl-4-[2-(trifluoromethyl)pyrimidin-5-yl]piperazine-1-carboxamide], the Ki was in the range of 10 to 100 nM.

With `C[C@@H]1CN(c2cnc(C(F)(F)F)nc2)C[C@H](C)N1C(=O)NCCC1CCN(Cc2ccc(N(C)C)cc2)CC1` [6-53, (2R,6S)-N-[2-(1-{[4-(dimethylamino)phenyl]methyl}piperidin-4-yl)ethyl]-2,6-dimethyl-4-[2-(trifluoromethyl)pyrimidin-5-yl]piperazine-1-carboxamide], the Ki was 10 to 100 nM.

Turning to `C[C@@H]1CN(c2cnc(C(F)(F)F)nc2)C[C@H](C)N1C(=O)NCCC1CCN(Cc2ccc(O)cc2)CC1` [6-54, (2R,6S)-N-(2-{1-[(4-hydroxyphenyl)methyl]piperidin-4-yl}ethyl)-2,6-dimethyl-4-[2-(trifluoromethyl)pyrimidin-5-yl]piperazine-1-carboxamide], the Ki fell in the range of 10 to 100 nM.

For `C[C@@H]1CN(c2cnc(C(F)(F)F)nc2)C[C@H](C)N1C(=O)NCCC1CCN(Cc2ccc(F)cc2)CC1` [6-55, (2R,6S)-N-(2-{1-[(4-fluorophenyl)methyl]piperidin-4-yl}ethyl)-2,6-dimethyl-4-[2-(trifluoromethyl)pyrimidin-5-yl]piperazine-1-carboxamide], the Ki was in the range of 10 to 100 nM.

On to `C[C@@H]1CN(c2cnc(C(F)(F)F)nc2)C[C@H](C)N1C(=O)NCCC1CCN(CCc2ccccc2)CC1` [6-56, (2R,6S)-2,6-dimethyl-N-{2-[1-(2-phenylethyl)piperidin-4-yl]ethyl}-4-[2-(trifluoromethyl)pyrimidin-5-yl]piperazine-1-carboxamide], for which the inhibitory constant (Ki) fell in the range of 10 to 100 nM.

Take `Cc1cc(CN2CCC(CCNC(=O)N3[C@H](C)CN(c4ncc(C#N)cn4)C[C@@H]3C)CC2)ccc1O` [6-57, (2R,6S)-4-(5-cyanopyrimidin-2-yl)-N-(2-{1-[(4-hydroxy-3-methylphenyl)methyl]piperidin-4-yl}ethyl)-2,6-dimethylpiperazine-1-carboxamide]: the Ki was in the range of 10 to 100 nM.

Regarding `C[C@@H]1CN(c2ncc(C#N)cn2)C[C@H](C)N1C(=O)NCCC1CCN(Cc2ncccn2)CC1` [6-58, (2R,6S)-4-(5-cyanopyrimidin-2-yl)-2,6-dimethyl-N-{2-[1-(pyrimidin-2-ylmethyl)piperidin-4-yl]ethyl}piperazine-1-carboxamide], the Ki was 100 to 1000 nM.

On to `COc1cccc(CN2CCC(CCNC(=O)N3[C@H](C)CN(c4ncc(C#N)cn4)C[C@@H]3C)CC2)c1` [6-59, (2R,6S)-4-(5-cyanopyrimidin-2-yl)-N-(2-{1-[(3-methoxyphenyl)-methyl]piperidin-4-yl}ethyl)-2,6-dimethylpiperazine-1-carboxamide], for which the Ki was 10 to 100 nM.

As to `C[C@@H]1CN(c2ncc(C#N)cn2)C[C@H](C)N1C(=O)NCCC1CCN(Cc2ccc3occc3c2)CC1` [6-60, (2R,6S)-N-{2-[1-(1-benzofuran-5-ylmethyl)piperidin-4-yl]ethyl}-4-(5-cyanopyrimidin-2-yl)-2,6-dimethylpiperazine-1-carboxamide], the Ki was 10 to 100 nM.

For `C[C@@H]1CN(c2ncc(C#N)cn2)C[C@H](C)N1C(=O)NCCC1CCN(Cc2cccnc2)CC1` [6-61, (2R,6S)-4-(5-cyanopyrimidin-2-yl)-2,6-dimethyl-N-{2-[1-(pyridin-3-ylmethyl)piperidin-4-yl]ethyl}piperazine-1-carboxamide], the Ki was in the range of 100 to 1000 nM.

With `C[C@@H]1CN(c2ncc(C#N)cn2)C[C@H](C)N1C(=O)NCCC1CCN(Cc2ccncc2)CC1` [6-62, (2R,6S)-4-(5-cyanopyrimidin-2-yl)-2,6-dimethyl-N-{2-[1-(pyridin-4-ylmethyl)piperidin-4-yl]ethyl}piperazine-1-carboxamide], the Ki was 100 to 1000 nM.

For `C[C@@H]1CN(c2ncc(C#N)cn2)C[C@H](C)N1C(=O)NCCC1CCN(Cc2ccc(B(O)O)cc2)CC1` [6-63, (4-{[4-(2-{[(2R,6S)-4-(5-cyanopyrimidin-2-yl)-2,6-dimethyl-piperazine-1-carbonyl]amino}ethyl)piperidin-1-yl]methyl}phenyl)boronic acid], the Ki fell in the range of 100 to 1000 nM.

`C[C@@H]1CN(c2ncc(C#N)cn2)C[C@H](C)N1C(=O)NCCC1CCN(Cc2cccnc2F)CC1` [6-64, (2R,6S)-4-(5-cyanopyrimidin-2-yl)-N-(2-{1-[(2-fluoropyridin-3-yl)methyl]piperidin-4-yl}ethyl)-2,6-dimethylpiperazine-1-carboxamide]: the Ki was in the range of 100 to 1000 nM.

Turning to `COc1ccc(CN2CCC(CCNC(=O)N3[C@H](C)CN(c4ncc(C#N)cn4)C[C@@H]3C)CC2)cc1` [6-65, (2R,6S)-4-(5-cyanopyrimidin-2-yl)-N-(2-{1-[(4-methoxyphenyl)-methyl]piperidin-4-yl}ethyl)-2,6-dimethylpiperazine-1-carboxamide], the Ki was 10 to 100 nM.

In the case of `C[C@@H]1CN(c2ncc(C#N)cn2)C[C@H](C)N1C(=O)NCCC1CCN(Cc2ccc3c(c2)nnn3C)CC1` [6-66, (2R,6S)-4-(5-cyanopyrimidin-2-yl)-2,6-dimethyl-N-(2-{1-[(1-methyl-1H-1,2,3-benzotriazol-5-yl)methyl]piperidin-4-yl}ethyl)piperazine-1-carboxamide], the Ki fell in the range of 100 to 1000 nM.

Regarding `COc1ccccc1CN1CCC(CCNC(=O)N2[C@H](C)CN(c3ncc(C#N)cn3)C[C@@H]2C)CC1` [6-67, (2R,6S)-4-(5-cyanopyrimidin-2-yl)-N-(2-{1-[(2-methoxyphenyl)-methyl]piperidin-4-yl}ethyl)-2,6-dimethylpiperazine-1-carboxamide], the Ki fell in the range of 10 to 100 nM.

For the compound `C[C@@H]1CN(c2ccc(F)c(C#N)c2)CCN1C(=O)NCCC1(CO)CCN(Cc2ccccc2)CC1` [7-2, (2R)-N-{2-[1-benzyl-4-(hydroxymethyl)piperidin-4-yl]ethyl}-4-(3-cyano-4-fluorophenyl)-2-methylpiperazine-1-carboxamide], the Ki lay within 10 to 100 nM.

Consider `C[C@@H]1CN(c2ccc(OC(F)(F)F)c(C#N)c2)CCN1C(=O)NCCN1CCN(Cc2ccccc2)CC1` [7-3, (2R)-N-[2-(4-benzylpiperazin-1-yl)ethyl]-4-[3-cyano-4-(trifluoromethoxy)phenyl]-2-methylpiperazine-1-carboxamide], for which the Ki was 10 to 100 nM.

The values are drawn from patent US11033539B2, “Compounds of formulas (VII), (VIII), (IX), (XI), (XII), (XIII), and (XIV) as muscarinic receptor 4(M4) antagonists for treating neurological diseases” (Neurocrine Biosciences, Inc., priority 2015, dated 2021).
